Laboratory results published in patent US12252524B2, “GIP/GLP1 co-agonist compounds” (Eli Lilly and Company, priority 2018, dated 2025).
Numbered stars: 1 amine (or outer) side, 2 acyl side, 3 side chain; on linkers, the order of the positions; unused ones are H or OH. Square brackets hold non-standard residues; d marks the D form. Side chains are listed from the residue outwards. Peptide text beside a SMILES is read from it. * marks the point of attachment. C20 diacid = O=C(O)CCCCCCCCCCCCCCCCCCC(=O)*; γGlu = O=C(O)[C@H](CCC(=O)[*:2])N[*:1]; αMeL = CC(C)C[C@](C)(N)C(=O)O; Orn = NCCC[C@H](N)C(=O)O; AEEA = NCCOCCOCC(=O)O; Aib = CC(C)(N)C(=O)O

Legend:
human Gcg receptor = target: T1, human Gcg receptor (Homo sapiens, UniProt P47871); assay: [125I]-Glucagon binding (SPA), human Gcg receptor; details: read-out: hGLcgR Ki, nM (SEM, n)
T1 construct: expressed in transfected cells; crude membranes
Outline: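 Cell pellets were lysed in hypotonic Tris buffer, pH 7.5, homogenized, and spun at low then high speed to give crude membranes. Ki was derived from the fitted IC50.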

human GIP receptor = target: T2, human GIP receptor (Homo sapiens, UniProt P48546); assay: [125I]-GIP binding (SPA), human GIP receptor; details: read-out: hGIPR Ki, nM (SEM, n)
T2 construct: expressed in transfected cells; crude membranes
T2 sequence (P48546 22-466): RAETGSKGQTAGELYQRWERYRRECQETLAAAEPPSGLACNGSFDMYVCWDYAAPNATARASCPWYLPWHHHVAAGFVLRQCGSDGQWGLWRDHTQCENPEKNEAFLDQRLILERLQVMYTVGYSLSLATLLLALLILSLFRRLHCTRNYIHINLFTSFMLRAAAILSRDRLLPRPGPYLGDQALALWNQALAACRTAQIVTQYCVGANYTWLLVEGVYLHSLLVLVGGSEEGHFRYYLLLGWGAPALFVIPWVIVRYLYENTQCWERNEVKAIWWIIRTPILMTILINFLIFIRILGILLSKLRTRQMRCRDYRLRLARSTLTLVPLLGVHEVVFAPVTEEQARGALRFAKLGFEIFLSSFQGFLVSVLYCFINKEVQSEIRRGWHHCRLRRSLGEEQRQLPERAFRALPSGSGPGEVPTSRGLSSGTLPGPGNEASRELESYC

[1] = target: human GLP-1 receptor (GLP-1R) (Homo sapiens, UniProt P43220); assay: cAMP pharmacological functional assay in presence of casein, hGLP-1R; format: cell-based; details: HEK293 cells expressing hGLP-1R, 0.1% Casein, geometric mean; read-out: hGLP1R cAMP Rel EC50 nM (SEM, n)
[2] = target: T3, gastric inhibitory peptide receptor (GIPR) (Homo sapiens, UniProt P48546); assay: cAMP pharmacological functional assay in presence of casein, hGIPR; format: cell-based; details: HEK293 cells expressing hGIPR, 0.1% Casein, geometric mean; read-out: hGIPR cAMP Rel EC50 nM (SEM, n)
T3 sequence (P48546 22-466): T2 sequence (P48546 22-466)

human GLP-1R [3] = target: T4, human GLP-1R (Homo sapiens, UniProt P43220); assay: [125I]-GLP-1 binding (SPA), human GLP-1 receptor; design: expressed in transfected cells; crude membranes; details: read-out: hGLP1R Ki, (nM) (SEM, n)
Outline: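 Frozen cell pellets are lysed on ice in hypotonic Tris buffer, pH 7.5, homogenized, and centrifuged to a membrane pellet resuspended at about 1 to 3 mg/mL. Binding is then measured in HEPES-based buffer at pH 7.4, and curves are fitted to give IC50 and Ki.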

human GLP-1R [4] = target: T4, human GLP-1R; assay: GLP-1R CHO cell β-arrestin recruitment assay; format: cell-based; design: host or cells: CHO-K1 PathHunter cells, assay-ready frozen; details: for EC50: CHO-K1 cells, PathHunter β-arrestin-2 recruitment, 0.1% casein, read-out: hGLP1R B-Arrestin2 Rel EC50 uM (SEM, n); for hGLP1R B-Arrestin2 % Top: normalized to GLP-1 maximum control
Outline: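 Peptide-induced β-arrestin-2 recruitment measured by enzyme-fragment complementation luminescence after 90 min at 37 °C plus 60 min detection at RT.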

human GLP-1R [5] = target: T4, human GLP-1R; assay: GLP-1R HEK293 cell membrane [35S]GTPγS binding assay; format: biochemical; design: expressed in transfected cells; host or cells: HEK293 cells expressing human GLP-1R; membranes; details: HEK293 cell membranes expressing human GLP-1R, [35S]GTPγS binding; read-out: hGLP1R GTPgS Rel EC50 nM (SEM, n)
Outline: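 Agonist-driven Gαs activation read as [35S]GTPγS ([…]) binding to receptor-expressing HEK293 membranes, 30 min at room temperature, pH 7.4. Detection by anti-Gαs immunocapture on scintillation beads; EC50 derived from four-parameter logistic concentration-response fit.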

T1 sequence (P47871 26-477): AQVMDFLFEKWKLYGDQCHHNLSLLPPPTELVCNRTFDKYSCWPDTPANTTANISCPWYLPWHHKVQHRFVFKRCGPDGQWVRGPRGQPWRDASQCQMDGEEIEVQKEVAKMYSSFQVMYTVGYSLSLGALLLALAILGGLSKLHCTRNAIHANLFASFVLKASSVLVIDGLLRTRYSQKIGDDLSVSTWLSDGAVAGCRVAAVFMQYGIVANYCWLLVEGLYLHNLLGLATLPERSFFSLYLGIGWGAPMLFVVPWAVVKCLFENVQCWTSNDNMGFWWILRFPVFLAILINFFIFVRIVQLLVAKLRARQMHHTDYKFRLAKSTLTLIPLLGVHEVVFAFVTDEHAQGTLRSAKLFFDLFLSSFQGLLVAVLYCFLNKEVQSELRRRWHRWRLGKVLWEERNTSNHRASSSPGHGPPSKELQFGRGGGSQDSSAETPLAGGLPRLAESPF
T4 sequence (P43220 24-463): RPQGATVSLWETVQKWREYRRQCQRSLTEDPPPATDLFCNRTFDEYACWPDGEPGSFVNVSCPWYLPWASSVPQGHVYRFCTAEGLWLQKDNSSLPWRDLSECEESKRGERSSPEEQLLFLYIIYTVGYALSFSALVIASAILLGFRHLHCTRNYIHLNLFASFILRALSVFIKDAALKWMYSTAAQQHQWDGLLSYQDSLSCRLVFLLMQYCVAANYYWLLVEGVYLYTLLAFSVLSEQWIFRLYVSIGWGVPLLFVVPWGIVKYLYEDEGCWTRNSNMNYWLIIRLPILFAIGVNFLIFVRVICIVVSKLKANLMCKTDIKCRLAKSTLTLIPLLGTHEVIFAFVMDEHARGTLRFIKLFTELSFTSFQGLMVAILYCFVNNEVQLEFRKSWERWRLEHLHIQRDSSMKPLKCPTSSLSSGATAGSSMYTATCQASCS
Sequence of human GLP-1 receptor (GLP-1R) (P43220 24-463): as above

SMILES | Ki (human Gcg receptor) | Ki (human GIP receptor) | EC50 [1] | EC50 [2] | Ki (human GLP-1R [3]) | EC50 (human GLP-1R [4]) | hGLP1R B-Arrestin2 % Top (human GLP-1R [4]) | EC50 (human GLP-1R [5])
CC[C@H](C)[C@H](NC(=O)[C@H](CC(C)C)NC(=O)[C@H](Cc1ccc(O)cc1)NC(=O)[C@@H](CCC(=O)O)NC(=O)[C@@H](NC(=O)[C@H](Cc1ccccc1)NC(=O)[C@H](C)NC(=O)C(C)(C)NC(=O)[C@H](CCC(N)=O)NC(=O)[C@H](C)NC(=O)[C@H](CCCCNC(=O)COCCOCCNC(=O)COCCOCCNC(=O)CC[C@H](NC(=O)CCCCCCCCCCCCCCCCCCC(=O)O)C(=O)O)NC(=O)[C@H](CCCCN)NC(=O)[C@H](CC(=O)O)NC(=O)[C@H](CC(C)C)NC(=O)[C@](C)(CC(C)C)NC(=O)[C@@H](NC(=O)[C@H](CO)NC(=O)[C@H](Cc1ccc(O)cc1)NC(=O)[C@H](CC(=O)O)NC(=O)[C@H](CO)NC(=O)[C@@H](NC(=O)[C@H](Cc1ccccc1)NC(=O)[C@@H](NC(=O)CNC(=O)[C@H](CCC(=O)O)NC(=O)C(C)(C)NC(=O)[C@H](N)Cc1ccc(O)cc1)[C@@H](C)O)[C@@H](C)O)[C@@H](C)CC)[C@@H](C)CC)C(=O)N[C@@H](C)C(=O)NCC(=O)NCC(=O)N1CCC[C@H]1C(=O)N[C@@H](CO)C(=O)N[C@@H](CO)C(=O)NCC(=O)N[C@@H](C)C(=O)N1CCC[C@H]1C(=O)N1CCC[C@H]1C(=O)N1CCC[C@H]1C(=O)N[C@@H](CO)C(N)=O [Example 352] (H-[dY][Aib]EGTFTSDYSI[αMeL]LDKK([AEEA-AEEA-γGlu-C20 diacid])AQ[Aib]AFI[dE]YLIAGGPSSGAPPPS-NH2) | > 1030 nM | 0.0726 nM | 0.142 nM | 0.127 nM | 3.03 nM | 0.00421 µM | 17.4% | 0.552 nM
CC[C@H](C)[C@H](NC(=O)[C@H](CC(C)C)NC(=O)[C@H](Cc1ccc(O)cc1)NC(=O)[C@@H](CCC(=O)O)NC(=O)[C@@H](NC(=O)[C@H](Cc1ccccc1)NC(=O)[C@H](CCC(=O)O)NC(=O)C(C)(C)NC(=O)[C@H](CCC(N)=O)NC(=O)[C@H](C)NC(=O)[C@H](CCCCNC(=O)COCCOCCNC(=O)COCCOCCNC(=O)CC[C@H](NC(=O)CCCCCCCCCCCCCCCCCCC(=O)O)C(=O)O)NC(=O)[C@H](CCCN)NC(=O)[C@H](CC(=O)O)NC(=O)[C@H](CC(C)C)NC(=O)[C@](C)(CC(C)C)NC(=O)[C@@H](NC(=O)[C@H](CO)NC(=O)[C@H](Cc1ccc(O)cc1)NC(=O)[C@H](CC(=O)O)NC(=O)[C@H](CO)NC(=O)[C@@H](NC(=O)[C@H](Cc1ccccc1)NC(=O)[C@@H](NC(=O)CNC(=O)[C@H](CCC(=O)O)NC(=O)C(C)(C)NC(=O)[C@H](N)Cc1ccc(O)cc1)[C@@H](C)O)[C@@H](C)O)[C@@H](C)CC)[C@@H](C)CC)C(=O)N[C@@H](C)C(=O)NCC(=O)NCC(=O)N1CCC[C@H]1C(=O)N[C@@H](CO)C(=O)N[C@@H](CO)C(=O)NCC(=O)N[C@@H](C)C(=O)N1CCC[C@H]1C(=O)N1CCC[C@H]1C(=O)N1CCC[C@H]1C(=O)N[C@@H](CO)C(N)=O [Example 354] (H-[dY][Aib]EGTFTSDYSI[αMeL]LD[Orn]K([AEEA-AEEA-γGlu-C20 diacid])AQ[Aib]EFI[dE]YLIAGGPSSGAPPPS-NH2; N-terminus assumed) | > 953 nM | 0.175 nM | 0.54 nM | 0.233 nM | 7.85 nM | 0.255 µM | 22.7% | 0.967 nM
CC[C@H](C)[C@H](NC(=O)[C@H](CC(C)C)NC(=O)[C@H](Cc1ccc(O)cc1)NC(=O)[C@H](CCC(=O)O)NC(=O)[C@@H](NC(=O)[C@H](Cc1ccccc1)NC(=O)[C@H](C)NC(=O)C(C)(C)NC(=O)[C@H](CCC(N)=O)NC(=O)[C@H](C)NC(=O)[C@H](CCCCNC(=O)COCCOCCNC(=O)COCCOCCNC(=O)CC[C@H](NC(=O)CCCCCCCCCCCCCCCCCCC(=O)O)C(=O)O)NC(=O)[C@H](CCCN)NC(=O)[C@H](CC(=O)O)NC(=O)[C@H](CC(C)C)NC(=O)[C@](C)(CC(C)C)NC(=O)[C@@H](NC(=O)[C@H](CO)NC(=O)[C@H](Cc1ccc(O)cc1)NC(=O)[C@H](CC(=O)O)NC(=O)[C@H](CO)NC(=O)[C@@H](NC(=O)[C@H](Cc1ccccc1)NC(=O)[C@@H](NC(=O)CNC(=O)[C@H](CCC(=O)O)NC(=O)C(C)(C)NC(=O)[C@H](N)Cc1ccc(O)cc1)[C@@H](C)O)[C@@H](C)O)[C@@H](C)CC)C(C)C)C(=O)N[C@@H](C)C(=O)NCC(=O)NCC(=O)N1CCC[C@H]1C(=O)N[C@@H](CO)C(=O)N[C@@H](CO)C(=O)NCC(=O)N[C@@H](C)C(=O)N1CCC[C@H]1C(=O)N1CCC[C@H]1C(=O)N1CCC[C@H]1C(=O)N[C@@H](CO)C(N)=O [Example 358] (H-[dY][Aib]EGTFTSDYSI[αMeL]LD[Orn]K([AEEA-AEEA-γGlu-C20 diacid])AQ[Aib]AFVEYLIAGGPSSGAPPPS-NH2; N-terminus assumed) | 915 nM | 0.0636 nM | 0.117 nM | 0.183 nM | 1.37 nM | 0.00938 µM | 21.4% | 0.414 nM
CC[C@H](C)[C@H](NC(=O)[C@H](CC(C)C)NC(=O)[C@H](Cc1ccc(O)cc1)NC(=O)[C@H](CCC(=O)O)NC(=O)[C@@H](NC(=O)[C@H](Cc1ccccc1)NC(=O)[C@H](CCC(=O)O)NC(=O)C(C)(C)NC(=O)[C@H](CCC(N)=O)NC(=O)[C@H](C)NC(=O)[C@H](CCCCNC(=O)COCCOCCNC(=O)COCCOCCNC(=O)CC[C@H](NC(=O)CCCCCCCCCCCCCCCCCCC(=O)O)C(=O)O)NC(=O)[C@H](CCCN)NC(=O)[C@H](CC(=O)O)NC(=O)[C@H](CC(C)C)NC(=O)[C@](C)(CC(C)C)NC(=O)[C@@H](NC(=O)[C@H](CO)NC(=O)[C@H](Cc1ccc(O)cc1)NC(=O)[C@H](CC(=O)O)NC(=O)[C@H](CO)NC(=O)[C@@H](NC(=O)[C@H](Cc1ccccc1)NC(=O)[C@@H](NC(=O)CNC(=O)[C@H](CCC(=O)O)NC(=O)C(C)(C)NC(=O)[C@H](N)Cc1ccc(O)cc1)[C@@H](C)O)[C@@H](C)O)[C@@H](C)CC)C(C)C)C(=O)N[C@@H](C)C(=O)NCC(=O)NCC(=O)N1CCC[C@H]1C(=O)N[C@@H](CO)C(=O)N[C@@H](CO)C(=O)NCC(=O)N[C@@H](C)C(=O)N1CCC[C@H]1C(=O)N1CCC[C@H]1C(=O)N1CCC[C@H]1C(=O)N[C@@H](CO)C(N)=O [Example 359] (H-[dY][Aib]EGTFTSDYSI[αMeL]LD[Orn]K([AEEA-AEEA-γGlu-C20 diacid])AQ[Aib]EFVEYLIAGGPSSGAPPPS-NH2) | > 982 nM | 0.0874 nM | 0.131 nM | 0.172 nM | 2.59 nM | 0.0841 µM | 28.4% | 0.496 nM
